Experimental findings from PMC5104457, “ATP-Competitive MLKL Binders Have No Functional Impact on Necroptosis” (PLoS ONE, 2016) are described below.

Read-outs that look alike come from different tables or passages of the source.

For one assay, the system named is 403 non-mutant kinases. Put plainly: DiscoverX kinase selectivity panel. It counts as binding. To be noted: 1 μM compound. The text has this:
We then characterized several compounds that were expected to bind to MLKL across a broad panel of 403 non-mutant kinases at DiscoverX.

The target in a further assay is T1, pseudokinase MLKL-1 (Homo sapiens, UniProt Q8NB16).
T1 construct: sub-cloning residues 191 to 471 of the pseudokinase domain of human MLKL cDNA; His6 (thrombin cleavable) (N); made in house; host or cells: Escherichia coli BL21 (DE3)
T1 sequence (Q8NB16 191-471): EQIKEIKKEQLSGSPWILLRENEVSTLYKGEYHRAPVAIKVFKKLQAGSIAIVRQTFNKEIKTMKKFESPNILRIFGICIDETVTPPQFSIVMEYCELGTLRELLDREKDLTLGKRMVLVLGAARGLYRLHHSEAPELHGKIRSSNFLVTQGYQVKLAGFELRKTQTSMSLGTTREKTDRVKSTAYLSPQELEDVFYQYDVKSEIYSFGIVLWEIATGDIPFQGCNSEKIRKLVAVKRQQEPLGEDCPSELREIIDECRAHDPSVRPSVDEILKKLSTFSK
Put plainly: Differential scanning fluorimetry (thermal shift), MLKL pseudokinase domain. The class given is binding. The settings on record: 10 μM compound, 1 μM protein, average of triplicates; read-out: MLKL Pseudo-kinase thermal shift at 10 μM. An excerpt:
MLKL-1 was constructed by sub-cloning residues 191 to 471 of the pseudokinase domain of human MLKL cDNA into a pET15b vector with a thrombin cleavable N-terminal six histidine fusion tag (His-MLKL-1). MLKL-2 had the same protein boundaries and fusion tag system as MLKL-1 but the dual mutations E366A and K367A were introduced using site directed mutagenesis and was expressed in the same vector (His-MLKL-2).
(§1) To measure the thermal stabilization of the proteins upon compound binding we employed differential scanning fluorimetry (DSF). The kinase domain of RIPK1 and the N-terminal domain HSP90α were expressed and purified as previously described. The pseudokinase MLKL-1, RIPK1 and Hsp90 were melted at 1μM final concentrations in 25mM HEPES pH 8.0, 250mM NaCl and 2.5mM DTT. Compounds were added to a final concentration of 10 μ M with a final DMSO concentration of 5%. The complexes were incubated on ice for 30 minutes. Protein Thermal Shift dye (Life Technologies) was added to 1X. The fluorescence intensities were measured using a Quantstudio real-time PCR system (Life Technologies) with excitation at 470 nm and emission at 586 nm. The samples, measured in triplicate, were heated from 25 to 85°C with a heating rate of […].
A general note: DSF heats the sample and reads unfolding from a dye or from intrinsic fluorescence.

The next assay deals with T2, kinase domain of RIPK1 (Homo sapiens, UniProt Q13546).
T2 construct: The kinase domain of RIPK1; made in house
T2 sequence (Q13546 17-289 limits assumed): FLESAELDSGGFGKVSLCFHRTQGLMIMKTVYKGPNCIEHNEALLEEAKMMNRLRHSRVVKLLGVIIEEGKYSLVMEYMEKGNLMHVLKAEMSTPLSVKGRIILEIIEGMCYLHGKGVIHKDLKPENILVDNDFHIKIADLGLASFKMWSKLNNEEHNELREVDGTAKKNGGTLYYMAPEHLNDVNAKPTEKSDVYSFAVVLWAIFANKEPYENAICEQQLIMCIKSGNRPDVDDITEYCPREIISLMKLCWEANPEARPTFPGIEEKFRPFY
Description: Differential scanning fluorimetry (thermal shift), RIPK1 kinase domain. The settings on record: 10 μM compound, 1 μM protein, average of triplicates. It counts as binding. As for the experimental part: as §1

In another assay the test system is FADD (-/-) Jurkat cells. Description: Necroptosis assay: rescue from TNF-α induced cell death. The class given is cell-based. To be noted: Homo sapiens; for IC50: read-out: Necroptosis cell IC50. How it is done:
Necroptosis assays were performed at Charles River Laboratories (United Kingdom) and at Biogen. […] On the day of the experiment, cells were counted using Nexcelom Bioscience Cell Meter Vision and pelleted by centrifugation. Cell pellets were resuspended in fresh medium at 500,000 cells per mL and transferred to assay-ready compound plates prepared in 384-well white TC plates (Greiner #781080) at 20μl cells per well. Cells and compound were incubated at room temperature for 30 minutes followed by +/- stimulation with 15ng/ml TNF-α (Cell signalling Technologies #8902LF) overnight at 37°C. In the morning, plates were equilibrated to room temperature for 30 minutes and 25μl of CellTiter-Glow (CellTiter-Glo 2.0 Assay, Promega # G9243) diluted 1:4 in PBS was added to each well and allowed to incubate for 10 minutes at room temperature. Luminescence was read on an Envision plate reader (Perkin Elmer).
TNF-α added to these cells induces necroptosis or cell death. The term “Rescue” refers to the ability of a compound to prevent loss of cell viability in the presence of TNF. Definitions of the presence or absence of compound or TNF stimulation in the wells that were used to calculate degree of rescue or viability is defined in Table 1.
100% percent rescue is defined as the value of the “no TNF” wells minus the value of wells treated with “TNF”.
Percent Rescue is then the ratio of the intensity value of the experimental “well” minus the value of “TNF” treated wells divided by the overall difference between the value of “no TNF” treated wells and the value of “TNF” treated wells.
%rescue=((well - TNF)/(no TNF - TNF))x100

For assay [1], the system named is RIPK3 phosphorylation of MLKL in 293T cells. Put plainly: MLKL phosphorylation assay (MSD), RIPK3-dependent phospho Ser358. The settings on record: 293T cells with GFP-MLKL and RIPK3-mCherry, 30 min compound, normalized to DMSO. It counts as cell-based, human. How it is done: The cDNA clones of human MLKL (RC213152) and human RIPK3 (RC209549) were purchased from Origene. To generate GFP-MLKL and RIPK3-mCherry, coding sequences of the corresponding cDNA sequences were PCR amplified and cloned into Biogen’s mammalian expression vector.
293T cells grown in 10 cm plates were transfected with GFP-MLKL alone or both GFP-MLKL and RIPK3-mCherry plasmids. After 24 hours, cells were harvested and replated into poly D lysine coated 96W plate with 20,000 cells/ml. Four hours later, cells were treated with MLKL compounds for 30 min and incubated at 37°C. Thirty minutes later, the media was removed and cells were lysed in 150μl of Cell lysis buffer (Cell Signaling, MA) containing both protease and phosphatase inhibitors. The lysates were transferred to 96 well MSD plates (Meso Scale Discovery, MD) that were precoated with anti-mouse MLKL antibody H00197259-M02, 3B2, Novus Biologicals, CO), and incubated overnight at 4°C. After washing the plates three times with 1x MSD wash buffer (50mM TRIS-HCl, 150mM NaCl, 0.02% Tween 20, pH7.5), 100 μl of 0.5μg/ml of rabbit-anti-MLKL phospho Ser358 (Abcam AB187091) was added to each well. The plates were incubated for 2 hours at room temperature. After three washes with MSD wash buffer, 100 μ l of 0.5ug/ml of SULFO-tag labeled anti-rabbit IgG was added to each well and incubated for 1 hour at room temperature. After three washes, 1x Read bufferT (Meso Scale Discovery, MD) was added and the electrochemiluminescence (ECL) was measured with a MSD Sector Imager 600.

The IC50 is the point on the concentration scale where inhibition reaches its midpoint. For orientation: EC50 means the concentration giving half of the maximal effect. Higher therefore signals a need for much substance.

On to `Nc1nccnc1C(=O)O[C@@H](C(=O)Nc1ccc(F)cc1)c1ccccc1` [cpd 4, 3-Amino-pyrazine-2-carboxylic acid (R)-(4-fluorophenylcarbamoyl)-phenyl-methyl ester], for which the “number of kinases inhibited out of 403” value is given as 1 with 403 non-mutant kinases and “none” in the assay on 403 non-mutant kinases (listed as Cpd 4). Moreover, the ΔTm at 10 µM at pseudokinase MLKL-1 was 4 °C; at kinase domain of RIPK1 it was -0.15 °C. In the assay on FADD (-/-) Jurkat cells (FADD deficient Jurkat cells, TNF-α 15 ng/ml overnight, average of duplicates), the IC50 was over 40 µM. Also, the “effect on RIPK3-dependent phosphorylation of MLKL (phospho Ser358, in words)” value in assay [1] is given as “does not impact its phosphorylation”.

Consider `CN(c1ccc(NC(=O)Nc2ccc(OC(F)(F)F)cc2)cc1)c1ccnc(Nc2cccc(S(N)(=O)=O)c2)n1` [cpd 1, reference compound], for which, in the assay on 403 non-mutant kinases, the “number of kinases inhibited out of 403” value was determined as 56. For the same molecule, the ΔTm at 10 µM on pseudokinase MLKL-1 and on kinase domain of RIPK1 was 5 to 6 °C each time. For the same molecule, the IC50 in the assay with FADD (-/-) Jurkat cells (Jurkat) worked out at 1.85 µM. The same molecule came in with a concentration for a half-maximal effect (EC50) in the assay on FADD (-/-) Jurkat cells (FADD deficient Jurkat cells, TNF stimulation) of 1.85 µM. The “effect on RIPK3-dependent phosphorylation of MLKL (phospho Ser358, in words)” value in assay [1] (listed as Cpd 1) is on record as “does not impact its phosphorylation”.
